Measured values published in article PMC7217877, “N-AS-triggered SPMs are direct regulators of microglia in a model of Alzheimer’s disease” (Nature Communications, 2020).
Several values for one entry are separate records, joined by “and”; a condition that tells them apart may be missing. Equal entries are not always repeated.

Columns and labels:
[1] = target: T1, SphK1 (Homo sapiens, UniProt Q9NYA1); experiment: S1P formation by SphK1 (UPLC, Supplementary Fig 1e); format: biochemical; details: acetyl-CoA 0-50 mM
T1 construct: purchased Cayman 10348
Experimental: We confirmed S1P formation through SphK1 enzymatic activity measurements as previously described[11] using a UPLC (Ultra performance liquid chromatography) system (Waters). […] After pre-incubation, 1 mM ATP (Amresco, 0220) was added the mixture, and it was incubated at 37 °C for 1 h. The […] reactions were stopped by adding 53 μl of ethanol, and centrifuged at 15,493×g for 5 min. Thirty microliter of the supernatant was then transferred to a sampling glass vial and 5 μl was applied onto a UPLC system for analysis. S1P formation was followed as phosphorylation of (7-nitro-2-1,3-benzoxadiazol-4-yl)-d-erythro (NBD)-sphingosine (Avanti Polar Lipids) to NBD-S1P. Quantification was achieved by comparison with NBD-S1P (Avanti Polar Lipids) standards.

[2] = target: T2, COX2 T564A (Homo sapiens, UniProt P35354, T564A); experiment: filter binding assay of [14C] N-AS to COX2; details: 0.2 uM, replicates
T2 construct: His (N); made in house
T2 sequence (P35354 18-604 T564A): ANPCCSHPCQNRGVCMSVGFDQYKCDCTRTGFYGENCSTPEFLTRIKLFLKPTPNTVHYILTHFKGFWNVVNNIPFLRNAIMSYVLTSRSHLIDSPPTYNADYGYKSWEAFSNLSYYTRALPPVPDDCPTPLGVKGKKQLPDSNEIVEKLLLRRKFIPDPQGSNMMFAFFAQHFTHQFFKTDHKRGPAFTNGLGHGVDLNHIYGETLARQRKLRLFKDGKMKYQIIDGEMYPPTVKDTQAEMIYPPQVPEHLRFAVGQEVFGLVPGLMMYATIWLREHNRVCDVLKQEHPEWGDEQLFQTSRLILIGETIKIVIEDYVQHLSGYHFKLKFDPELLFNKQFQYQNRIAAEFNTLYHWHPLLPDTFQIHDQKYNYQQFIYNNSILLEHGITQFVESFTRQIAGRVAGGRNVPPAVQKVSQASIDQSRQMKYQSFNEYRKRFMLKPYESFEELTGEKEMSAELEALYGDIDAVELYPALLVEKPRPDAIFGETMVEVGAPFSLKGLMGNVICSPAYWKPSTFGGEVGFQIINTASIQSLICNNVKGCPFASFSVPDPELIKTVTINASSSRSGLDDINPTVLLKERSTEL

[3] = tested on: APP/PS1 mice; experiment: mRNA levels of inflammatory markers in cortex (real-time PCR, Fig 6j); format: in vivo, mouse; design: iNOS mRNA level (Figure 6j) / IL1b mRNA level (Figure 6j) / Arg1 mRNA level (Figure 6j) / IL4 mRNA level (Figure 6j) / TGFb mRNA level (Figure 6j) / TNF-a mRNA level (Figure 6j) / IL6 mRNA level (Figure 6j): scale not given here
Experimental: Transgenic mouse lines over-expressing the hAPP695swe (APP) and presenilin-1M146V (PS1) mutations were originated from GlaxoSmithKline (Harlow, UK)[32] and maintained as described previously. We purchased 5×FAD mice from Jackson Labs (Stock number. 34840-JAX). Because APP/PS1 and 5xFAD mice show sex differences in disease progression, we used only male mice. To examine possible therapeutic effect of N-AS and aspirin in APP/PS1 mice, the N-AS (30 mg kg^−1, Sigma-Aldrich, 01912) was injected daily s.c. for 8 weeks to 7-months-old APP/PS1 mice until the age of 9 months, and aspirin (2 mg kg^−1, Sigma-Aldrich, A5376)[33] was administrated orally to 7-months-old APP/PS1 mice for 8 weeks. Also, to confirm possible therapeutic efficacy of N-AS in 5×FAD, the N-AS (30 mg kg^−1, Sigma-Aldrich, 01912) was injected daily s.c. for 4 weeks to 3-months-old 5×FAD mice until the age of 4 months. Block randomization method was used to allocate the animals to experimental groups. To eliminate the bias, we were blinded in experimental progress such as data collection and data analysis. Mice were housed at temperature of 22 °C and a 12 h day/12 h night cycle with free access to tap water and food pellets. All protocols were approved by the Kyungpook National University Institutional Animal Care and Use Committee.
For total RNA extraction from the microglia derived from WT, APP/PS1, APP/PS1 mice treated with N-AS, and APP/PS1 mice treated with aspirin, the cells were isolated from the cortex of WT, APP/PS1, APP/PS1 mice treated with N-AS, or aspirin using the methods described above. Total RNA was isolated using the kit components according to the manufacturer’s instructions (RNeasy mini kit, 74134, QIAGEN). cDNA was synthesized from 5 μg of total RNA using a commercially available kit (Takara). Quantitative real-time PCR was performed using a Corbett research RG-6000 real-time PCR instrument. Primers are described in Supplementary Table 5.

[4] = APP/PS1 + N-AS, individual animals

T1 sequence (Q9NYA1 whole entry): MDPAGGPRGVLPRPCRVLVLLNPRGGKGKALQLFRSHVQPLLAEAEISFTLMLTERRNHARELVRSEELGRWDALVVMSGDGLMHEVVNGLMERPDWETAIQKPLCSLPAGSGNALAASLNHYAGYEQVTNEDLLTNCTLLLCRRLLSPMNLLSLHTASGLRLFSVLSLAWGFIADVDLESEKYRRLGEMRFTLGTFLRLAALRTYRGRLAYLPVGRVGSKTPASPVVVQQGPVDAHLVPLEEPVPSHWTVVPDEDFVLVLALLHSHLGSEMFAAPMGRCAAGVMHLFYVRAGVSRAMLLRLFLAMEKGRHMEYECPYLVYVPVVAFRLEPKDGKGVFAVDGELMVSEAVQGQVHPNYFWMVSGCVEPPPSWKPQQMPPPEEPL

| SMILES | S1P formation by SphK1, in words [1] | binding velocity (Vbinding) [2] | Arg1 mRNA level (Figure 6j) [3, 4] | IL1b mRNA level (Figure 6j) [3, 4] | IL4 mRNA level (Figure 6j) [3, 4] | IL6 mRNA level (Figure 6j) [3, 4] | TGFb mRNA level (Figure 6j) [3, 4] | TNF-a mRNA level (Figure 6j) [3, 4] | iNOS mRNA level (Figure 6j) [3, 4] | inflammatory response (mRNA of inflammatory markers) ([3]; N-AS vs vehicle APP/PS1) |
| --- | --- | --- | --- | --- | --- | --- | --- | --- | --- | --- |
| CC(=O)SCCNC(=O)CCNC(=O)[C@H](O)C(C)(C)COP(=O)(O)OP(=O)(O)OC[C@H]1O[C@@H](n2cnc3c(N)ncnc32)[C@H](O)[C@@H]1OP(=O)(O)O [Acetyl-CoA, acetyl-CoA] | inhibited S1P formation in a concentration dependent fashion |  |  |  |  |  |  |  |  |  |
| CCCCCCCCCCCCC/C=C/[C@@H](O)[C@H](CO)NC(C)=O [N-AS, N-((2S,3R,E)-1,3-Dihydroxyoctadec-4-en-2-yl)acetamide] |  | 0.196 nM/min and 0.240 nM/min and 0.096 nM/min | 1.307 and 2.185 and 1.935 and 1.275 and 1.335 and 1.465 | 1.25 and 0.7 and 1.3 and 0.95 and 0.88 and 1.1 | 0.765 and 1.235 and 0.984 and 0.825 | 0.7652 and 0.81 and 0.821 and 0.83 and 0.957 | 1.79 and 2.4 and 2.595 and 2.81 | 0.865 and 1.34 and 1.37 and 1.005 and 1.085 | 0.92 and 1.42 and 1.85 and 1.2 and 0.78 and 0.55 | improved |
